Results: US20190365774A1, “COMBINATION THERAPY OF BACE-1 INHIBITOR AND ANTI-N3PGLU ABETA ANTIBODY” (Eli Lilly and Company, priority 2016, published 2019)
Read-outs that look alike come from different tables or passages of the source.

Experiments:
[1] = biological target: T1, human BACE2 (1-460):Fc (Homo sapiens, UniProt Q9Y5Z0); assay: BACE2 TMEM27 FRET assay; format: biochemical
T1 construct: made in house; host or cells: HEK293 (transient, secreted into conditioned media, Protein A purified)
T1 sequence (Q9Y5Z0 21-460): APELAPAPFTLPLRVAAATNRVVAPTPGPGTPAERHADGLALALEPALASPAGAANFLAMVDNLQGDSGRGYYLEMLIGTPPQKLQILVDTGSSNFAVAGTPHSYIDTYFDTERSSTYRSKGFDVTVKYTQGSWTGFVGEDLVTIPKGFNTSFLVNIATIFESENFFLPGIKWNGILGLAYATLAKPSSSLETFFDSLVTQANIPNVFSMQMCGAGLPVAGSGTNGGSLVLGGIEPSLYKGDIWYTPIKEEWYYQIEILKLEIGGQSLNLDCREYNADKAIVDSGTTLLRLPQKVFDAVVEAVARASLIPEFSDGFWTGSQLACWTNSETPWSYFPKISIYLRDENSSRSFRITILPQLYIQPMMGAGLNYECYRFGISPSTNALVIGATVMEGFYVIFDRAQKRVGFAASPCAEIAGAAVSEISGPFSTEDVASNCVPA
Experimental: (§1) To assess selectivity of BACE1 over BACE2, the test compound is evaluated in FRET-based enzymatic assays using specific substrates for BACE1 and BACE2 as described below. For in vitro enzymatic and cellular assays, the test compound is prepared in DMSO to make up a 10 mM stock solution. The stock solution is serially diluted in DMSO to obtain a ten-point dilution curve with final compound concentrations ranging from 10 μM to 0.05 nM in a 96-well round-bottom plate before conducting the in vitro enzymatic and whole cell assays.
Human BACE1 (accession number: AF190725) and human BACE2 (accession number: AF 204944) are cloned from total brain cDNA by RT-PCR. […]
Conditioned media of HEK293 cell transiently transfected with huBACE1:Fc or huBACE2:Fc cDNA are collected. […] The purity of final product is assessed by electrophoresis in 4-20% Tris-Glycine SDS-PAGE. […]
Transmembrane protein 27 (TMEM27) (Accession Number NM_020665), also known as Collectrin) is a recently described substrate for BACE2, but not BACE1 (Esterhazy, et al, Cell Metabolism, 14, 365-377 (2011)). […] The RFU of the mixture at time 0 is recorded at excitation wavelength 430 nm and emission wavelength 535 nm. […] The RFU at the end of incubation is recorded with the same excitation and emission settings used at time 0. […]

[2] = system: BACE1 activity in SH-SY5YAPP695Wt cells; assay: SH-SY5YAPP695Wt whole cell assay (Abeta 1-40 / 1-42 ELISA); format: cell-based; conditions: Homo sapiens, Mean ± SEM, n = 4, 24 hours incubation
Experimental: as §1
The routine whole cell assay for the measurement of inhibition of BACE1 activity utilizes the human neuroblastoma cell line SH-SY5Y (ATCC Accession No. CRL2266) stably expressing a human APP695Wt cDNA. Cells are routinely used up to passage number 6 and then discarded.
SH-SY5YAPP695Wt cells are plated in 96 well tissue culture plates at 5.0×10^4 cells/well in 200 μL culture media (50% MEM/EBSS and Ham's F12, 1× each sodium pyruvate, non-essential amino acids and Na bicarbonate containing 10% FBS). The following day, media is removed from the cells, fresh media added then incubated at 37° C. for 24 hours in the presence/absence of test compound at the desired concentration range.
At the end of the incubation, conditioned media are analyzed for evidence of beta-secretase activity by analysis of Abeta peptides 1-40 and 1-42 by specific sandwich ELISAs. […]

[3] = system: Abeta 1-x; assay: In vivo inhibition of beta-secretase, brain Abeta 1-x in PDAPP mice; conditions: young female PDAPP mice, three hours after dosing, vs vehicle
Excerpt: Several animal models, including mouse, guinea pig, dog, and monkey, may be used to screen for inhibition of beta-secretase activity in vivo following compound treatment. Animals used in this invention can be wild type, transgenic, or gene knockout animals. For example, the PDAPP mouse model, prepared as described in Games et al., Nature 373, 523-527 (1995), and other non-transgenic or gene knockout animals are useful to analyze in vivo inhibition of Abeta and sAPPbeta production in the presence of inhibitory compounds. Generally, 2 month old PDAPP mice, gene knockout mice or non-transgenic animals are administered compound formulated in vehicles, such as corn oil, beta-cyclodextran, phosphate buffers, PHARMASOLVE®, or other suitable vehicles via oral, subcutaneous, intra-venous, feeding, or other route of administration. One to twenty-four hours following the administration of compound, animals are sacrificed, and brains are removed for analysis of Abeta 1-x. “Abeta 1-x” as used herein refers to the sum of Abeta species that begin with residue 1 and end with a C-terminus greater than residue 28. This detects the majority of Abeta species and is often called “total Abeta”. Total Abeta peptides (Abeta 1-x) levels are measured by a sandwich ELISA, using monoclonal 266 as a capture antibody and biotinylated 3D6 as reporting antibody. (See May, et al., Journal of Neuroscience, 31, 16507-16516 (2011)).
For acute studies, compound or appropriate vehicle is administered and animals are sacrificed at about 3 hours after dosing. Brain tissue, is obtained from selected animals and analyzed for the presence of Abeta 1-x. After chronic dosing brain tissues of older APP transgenic animals may also be analyzed for the amount of beta-amyloid plaques following compound treatment.
For example, a 3, 10, and 30 mg/kg oral dose of Example 1, to young female PDAPP mice reduced Abeta 1-x peptide levels in brain hippocampus by 23% (non-significant), 43% (p<0.05), and 58% (p<0.01), respectively.

Compound: CC(F)(F)[C@H]1OC[C@]2(c3cc(NC(=O)c4cnc(-n5cncn5)cn4)ccc3F)N=C(N)SC[C@H]12 [Example 1, N-[3-[(4aS,5S,7aS)-2-Amino-5-(1,1-difluoroethyl)-4,4a,5,7-tetrahydrofuro[3,4-d][1,3]thiazin-7a-yl]-4-fluoro-phenyl]-5-(1,2,4-triazol-1-yl)pyrazine-2-carboxamide]
- BACE2 IC50 / BACE1 IC50 ratio (fold selectivity for BACE1 over BACE2) [1]: about 400 fold
- IC50 ([2]; read-out: SH-SY5YAPP695Wt A-beta (1-40) ELISA IC50): 0.385 ± 0.163 nM
- IC50 ([2]; read-out: SH-SY5YAPP695Wt A-beta (1-42) ELISA IC50): 0.381 ± 0.266 nM
- reduction of Abeta 1-x peptide levels in brain hippocampus ([3]; 3 mg/kg oral, non-significant): 23%
- reduction of Abeta 1-x levels in brain cortical tissue ([3]; 3 mg/kg oral, p<0.01): 43%
- reduction of Abeta 1-x levels in brain cortical tissue ([3]; 10 mg/kg oral, p<0.01): 59%
- reduction of Abeta 1-x peptide levels in brain hippocampus ([3]; 10 mg/kg oral, p<0.05): 43%
- reduction of Abeta 1-x levels in brain cortical tissue ([3]; 30 mg/kg oral, p<0.01): 73%
- reduction of Abeta 1-x peptide levels in brain hippocampus ([3]; 30 mg/kg oral, p<0.01): 58%
